Patent publication US7598258B2, “Quinoline derivatives and quinazoline derivatives inhibiting autophosphorylation of macrophage colony stimulating factor receptor” (Kirin Beer Kabushiki Kaisha, priority 2002, dated 2009)

Legend:
[1] = test system: BAC-1.2F5 cell line; test: Inhibition of M-CSF-dependent cell growth of macrophage-like cell line BAC-1.2F5 (MTS); assay type: cell-based, mouse; details: 72 hr, M-CSF 50 ng/ml, FIG. 1
Method: Macrophage-like cell line BAC-1.2F5 which expresses c-fms as a M-CSF receptor on cell membranes (CLAUDIA M. et al., J. Cell. Physiol., 130, 420-427 (1987), “Isolation and Characterization of a Cloned Growth Factor Dependent Macrophage Cell Line, BAC1.2F5”) was cultured at 37° C. in a DMEM medium containing L-cell supernatant and 10% fetal calf serum (purchased from GIBCO BRL) in a 5% CO2 incubator until about 50 to 70% confluent. The harvested cells were inoculated into wells, each containing a 10% fetal calf serum-containing DMEM medium with human recombinant M-CSF being added thereto to a final concentration of 50 ng/ml, in a 96-well flat-bottom plate at a density of 5.0×10^3 per well, and cultured at 37° C. for 24 hr. A test compound dissolved in dimethyl sulfoxide was then added to each well to a target concentration, and cells were incubated at 37° C. in a 5% CO2 incubator for 72 hr. Thereafter, 20 μl of an MTS reagent (purchased from Promega) was added to each well, followed by incubation at 37° C. in a 5% CO2 incubator for 2 hr. Thereafter, absorbance at 490 nm was measured with a microplate reader. The cell growth rate with the addition of the test compound was determined by presuming the absorbance without the addition of the test compound and with the addition of M-CSF to be 100% cell growth and the absorbance without the addition of the test compound and M-CSF to be 0% cell growth. The concentration of the test compound was varied on several levels, and the cell growth rate in each case was calculated.

[2] = test system: osteoclast differentiation; test: Osteoclast differentiation-inducing test by cocultivation of mouse bone marrow cells and osteoblast-like cell line KS483 (TRAP activity); assay type: cell-based; details: 6 days coculture with 1,25(OH)2VD3, FIG. 2
Method: Mouse osteoblast-like cell line KS483 ([…] T. et al., Bone, 19, 429-436 (1996), “Subcloning of Three Osteoblastic Cell with Distinct Differentiation Phenotypes from the Mouse Osteoblastic Cell line KS-4”) was cultured in an α-MEM medium containing a 10% fetal calf serum (purchased from GIBCO BRL) until about 90% confluent. The cells were seeded into wells, each containing the same medium containing a 10% fetal calf serum, in a 48 well flat-bottom plate at a density of 2.0×10^3 per well. […] At the same time, the TRAP activity was evaluated by the measurement of enzyme activity using p-nitrophenylphosphate (SIGMA104 phosphatase substrate; SIGMA; hereinafter referred to as “PNP”). […] After stirring, 50 μl of 0.5 N NaOH was further added, and 100 μl of the reaction solution in each well was dispensed in a 96 well flat-bottom plate, and absorbance at 405 nm was then measured with a microplate reader. For each well, TRAP activity was measured by presuming the absorbance in the case of culture without the addition of the test compound and with the addition of only KS483 and mouse bone marrow cells in the presence of 1,25(OH)2VD3 to 100% TRAP activity and the absorbance without the addition of the test compound and the mouse bone marrow cells to 0% TRAP activity. […]

[3] = test system: bone metastasis of A375 human melanoma cells; test: Nude mouse bone metastasis model using human melanoma cells (A375); assay type: in vivo, nude mice; details: oral 40 mg/kg/day (20 mg twice a day), 28 days, p<0.01 vs. vehicle control, FIG. 3
Method: From the next day of the transplantation, for 28 days twice a day, the test compound was orally administered to the treatment group at 40 mg/kg/day, and the medium was orally administered to the control group. On 21 and 28 days after the transplantation, the mice were radiographed. For the images thus obtained, the bone resorption pore area in femora and fibiae attributable to bone metastasis of melanoma in each individual were calculated with an image analysis software (Image Gauge, FUJI FILM) to determine the average value for each group. The drug efficacy was evaluated by comparing the area of the test compound administered group with the area of the control group.

SMILES	inhibition of M-CSF-dependent cell growth of BAC-1.2F5 [1]	inhibition of osteoclast differentiation (TRAP activity) [2]	inhibition of expansion of bone resorption area involved in bone metastasis of melanoma [3]
COc1cc(Oc2ccnc3cc(OC)c(OC)cc23)ccc1NC(=O)N[C@@H](C)c1ccc(F)cc1 [Example 17, N-{4-[(6,7-Dimethoxy-4-quinolyl)oxy]-2-methoxyphenyl}-N′-[(1S)-1-(4-fluorophenyl)ethyl]urea]	concentration-dependent inhibition		
COc1cc(Oc2ccnc3cc(OC)c(OC)cc23)ccc1NC(=O)N[C@H](C)c1ccc(F)cc1 [Example 18, N-{4-[(6,7-Dimethoxy-4-quinolyl)oxy]-2-methoxyphenyl}-N′-[(1R)-1-(4-fluorophenyl)ethyl]urea]	concentration-dependent inhibition		
COc1cc(Oc2ccnc3cc(OC)c(OC)cc23)ccc1NC(=O)NC(C)c1nccs1 (centres unmarked) [Example 74, N-{4-[(6,7-Dimethoxy-4-quinolyl)oxy]-2-methoxyphenyl}-N′-[1-(1,3-thiazol-2-yl)ethyl]urea]	concentration-dependent inhibition	concentration-dependent inhibition	inhibiting the expansion of bone resorption area
